Data from ChEMBL document CHEMBL5365490, “Enhanced tumor specific drug release by hypoxia sensitive dual-prodrugs based on 2-nitroimidazole” (Bioorg Med Chem Lett, 2023).
Values belong to the compound of their own block, whether it stands above or below them. The source made the active and inactive calls. The calls are words filed in the database; no cut-off is given here.

How the values were obtained:
[1] = Chemical stability of compound in PBS at pH 7.4 assessed as remaining parent compound incubated for 6 hrs by LC/MS analysis; assay type: physicochemical; details: buffer, pH 7.4, 6 h
[2] = Stability of compound in human MIA Paca-2 cells homogenates assessed as remaining parent compound incubated for 6 hrs by LC/MS analysis; assay type: ADME, cell-based; details: mia paca-2, 6 h
[3] = Chemical stability of compound in PBS at pH 7.4 assessed as remaining parent compound incubated for 24 hrs by LC/MS analysis; assay type: physicochemical; details: buffer, pH 7.4, 24 h
[4] = Stability of compound in human MIA Paca-2 cells homogenates assessed as remaining parent compound incubated for 24 hrs by LC/MS analysis; assay type: ADME, cell-based; details: mia paca-2, 24 h
[5] = test system: MIA PaCa-2; assay: Antiproliferative activity against human MIA-PaCa-2 cells assessed as reduction in cell viability > 1 uM measured for 72 hrs under hypoxia condition by MTT assay; assay type: functional, cell-based
[6] = test system: MIA PaCa-2; assay: Antiproliferative activity against human MIA-PaCa-2 cells assessed as reduction in cell viability > 0.1 uM measured for 72 hrs under hypoxia condition by MTT assay; assay type: functional, cell-based
[7] = test system: MIA PaCa-2; assay: Antiproliferative activity against human MIA-PaCa-2 cell assessed as inhibition of cell growth > 0.1 uM measured for 72 hrs under normoxia condition by MTT assay; assay type: functional, cell-based
[8] = Chemical stability of compound in PBS at pH 7.4 assessed as remaining parent compound after 1 hrs of incubation by LC/MS analysis; assay type: physicochemical; details: buffer, pH 7.4, 1 h
[9] = Stability of compound in human MIA Paca-2 cells homogenates assessed as drug degradation incubated for 6 hrs by LC/MS analysis; assay type: ADME, cell-based; details: MIA PaCa-2 cell homogenates, read-out: Drug degradation
[10] = Drug metabolism in human MIA PaCa-2 cells homogenates assessed as gemcitabine formation incubated for 24 hrs by LC/MS analysis; assay type: ADME, cell-based; details: mia paca-2, 24 h
[11] = Drug metabolism in human MIA PaCa-2 cells homogenates assessed as (S)-2-(2,3-dichloro-4H-thieno[3,2-b]pyrrole-5-carboxamido)-3-(2-nitro-1H-imidazol-1-yl)propanoic acid formation incubated for 24 hrs by LC/MS analysis; assay type: ADME, cell-based; details: mia paca-2, 24 h
[12] = Half life in PBS buffer at pH 7.4 measured upto 72 hrs by LC/MS analysis; assay type: physicochemical

Stability [1]: Stable
Stability [2]: Stable
Stability [3]: Stable
Stability [4]: Stable
SMILES: O=C(Nc1ccn([C@@H]2O[C@H](CO)[C@@H](O)C2(F)F)c(=O)n1)OCc1ccc(NC(=O)[C@@H](Cn2ccnc2[N+](=O)[O-])NC(=O)c2cc3sc(Cl)c(Cl)c3[nH]2)cc1
Activity [5]: Active

SMILES: Nc1ccn([C@@H]2O[C@H](CO)[C@@H](O)C2(F)F)c(=O)n1
Activity [6]: Active
Activity [7]: Active

Stability [8]: Unstable
metabolised at 6 h [9]: > 50%
Drug metabolism [10]: Metabolite_Detected
Drug metabolism [11]: Metabolite_Detected
SMILES: Nc1ccn([C@@H]2O[C@H](COC(=O)[C@H](Cn3ccnc3[N+](=O)[O-])NC(=O)c3cc4sc(Cl)c(Cl)c4[nH]3)[C@@H](O)C2(F)F)c(=O)n1

half-life [12]: 40 h
SMILES: Nc1nccn1C[C@@H](NC(=O)c1cc2sc(Cl)c(Cl)c2[nH]1)C(=O)Nc1ccc(COC(=O)Nc2ccn([C@@H]3O[C@H](CO)[C@@H](O)C3(F)F)c(=O)n2)cc1
